Source: PubChem BioAssay (NCI)
Values joined by “and” are separate entries in the source; they are usually repeats but may differ in a detail not shown here. Identical values can stand only once.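 1) Cells in 96-well plates. 2) Compound, 48 h, 5 concentrations. 3) Linear interpolation between surrounding doses. 4) Unreached endpoint = highest concentration. Here, GI50 denotes the concentration required for 50% inhibition of growth. The concentration for full growth arrest is given as TGI.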

How the values were obtained:
Experiment in all cases: NCI tumour cell line growth inhibition, 48 h
LOX IMVI melanoma = tested on: LOX IMVI melanoma
HT29 colon = tested on: HT29 colon
HCT-15 colon = tested on: HCT-15 colon
SF-268 CNS = tested on: SF-268 CNS
HL-60(TB) leukemia = tested on: HL-60(TB) leukemia
OVCAR-3 ovarian = tested on: OVCAR-3 ovarian
SW-620 colon = tested on: SW-620 colon
SF-539 CNS = tested on: SF-539 CNS
SNB-78 CNS = tested on: SNB-78 CNS
OVCAR-8 ovarian = tested on: OVCAR-8 ovarian
OVCAR-5 ovarian = tested on: OVCAR-5 ovarian
M14 melanoma = tested on: M14 melanoma
DLD-1 colon = tested on: DLD-1 colon
CAKI-1 renal = tested on: CAKI-1 renal
UACC-257 melanoma = tested on: UACC-257 melanoma
CCRF-CEM leukemia = tested on: CCRF-CEM leukemia
HCT-116 colon = tested on: HCT-116 colon
TK-10 renal = tested on: TK-10 renal
SNB-75 CNS = tested on: SNB-75 CNS
ACHN renal = tested on: ACHN renal
UACC-62 melanoma = tested on: UACC-62 melanoma
UO-31 renal = tested on: UO-31 renal
IGROV1 ovarian = tested on: IGROV1 ovarian
786-0 renal = tested on: 786-0 renal
EKVX NSCLC = tested on: EKVX NSCLC
RPMI-8226 leukemia = tested on: RPMI-8226 leukemia
HCC-2998 colon = tested on: HCC-2998 colon
DMS 273 small cell lung = tested on: DMS 273 small cell lung
HOP-92 NSCLC = tested on: HOP-92 NSCLC
KM20L2 colon = tested on: KM20L2 colon
A498 renal = tested on: A498 renal
LXFL 529 NSCLC = tested on: LXFL 529 NSCLC
SF-295 CNS = tested on: SF-295 CNS
KM12 colon = tested on: KM12 colon
DMS 114 small cell lung = tested on: DMS 114 small cell lung
SN12C renal = tested on: SN12C renal
K-562 leukemia = tested on: K-562 leukemia
SK-MEL-2 melanoma = tested on: SK-MEL-2 melanoma
NCI-H460 lung = tested on: NCI-H460 lung
M19-MEL melanoma = tested on: M19-MEL melanoma
MALME-3M melanoma = tested on: MALME-3M melanoma
A549 NSCLC = tested on: A549 NSCLC
SR leukemia = tested on: SR leukemia
U251 CNS = tested on: U251 CNS
COLO 205 colon = tested on: COLO 205 colon
SK-MEL-28 melanoma = tested on: SK-MEL-28 melanoma
SK-MEL-5 melanoma = tested on: SK-MEL-5 melanoma
NCI-H522 lung = tested on: NCI-H522 lung
SNB-19 CNS = tested on: SNB-19 CNS
SK-OV-3 ovarian = tested on: SK-OV-3 ovarian
NCI-H23 lung = tested on: NCI-H23 lung
HOP-62 NSCLC = tested on: HOP-62 NSCLC

CCOC(=O)N1CCC(N[C@@H]2c3cc4c(cc3C(c3cc(OC)c(O)c(OC)c3)C3C(=O)OC[C@@H]32)OCO4)CC1 (some centres not stated)
TGI (LOX IMVI melanoma): 7.97 µM and 12.4 µM | TGI (HT29 colon): 15.5 µM and 10.7 µM | TGI (HCT-15 colon): 2.97 µM and 4.43 µM | TGI (SF-268 CNS): 30.8 µM and > 25 µM | GI50 (HL-60(TB) leukemia): 0.221 µM and 0.468 µM | TGI (HL-60(TB) leukemia): 2 µM and 5.46 µM | TGI (OVCAR-3 ovarian): 17.5 µM and 11.6 µM | TGI (SW-620 colon): 13.7 µM and 7.55 µM | TGI (SF-539 CNS): 5.78 µM and 4.71 µM | TGI (SNB-78 CNS): 50 µM and > 25 µM | TGI (OVCAR-8 ovarian): 11.6 µM and 10.3 µM | GI50 (OVCAR-5 ovarian): 3.3 µM and 7.49 µM | TGI (OVCAR-5 ovarian): 14 µM and 17.4 µM | TGI (M14 melanoma): 6.31 µM and 8.14 µM | TGI (DLD-1 colon): 30.6 µM and 14.3 µM | TGI (CAKI-1 renal): 2.35 µM and 2.26 µM | TGI (UACC-257 melanoma): 36.3 µM and > 25 µM | TGI (CCRF-CEM leukemia): 18.9 µM and > 25 µM | TGI (HCT-116 colon): 22.3 µM and 11 µM | GI50 (TK-10 renal): 2.09 µM and 4.27 µM | TGI (TK-10 renal): 11.9 µM and 9.5 µM | TGI (SNB-75 CNS): 15.2 µM and 24.8 µM | TGI (ACHN renal): 1.63 µM and 1.86 µM | TGI (UACC-62 melanoma): 2.87 µM and 5.37 µM | TGI (UO-31 renal): 3.21 µM and 4.14 µM | TGI (IGROV1 ovarian): 13.6 µM and 9.21 µM | TGI (786-0 renal): 2.94 µM and 4.8 µM | TGI (EKVX NSCLC): 4.86 µM and 7.1 µM | GI50 (RPMI-8226 leukemia): 1.46 µM and 4.12 µM | TGI (RPMI-8226 leukemia): 18.7 µM and > 25 µM | GI50 (HCC-2998 colon): 1.53 µM and 3.47 µM | TGI (HCC-2998 colon): 6.82 µM and 7.22 µM | GI50 (DMS 273 small cell lung): 0.18 µM and 1.55 µM | TGI (DMS 273 small cell lung): 6.03 µM and 9.02 µM | TGI (HOP-92 NSCLC): 3.5 µM and 3.67 µM | GI50 (KM20L2 colon): 2.16 µM and 4.5 µM | TGI (KM20L2 colon): 14.5 µM and 15.6 µM | TGI (A498 renal): 1.89 µM and 2.08 µM | TGI (LXFL 529 NSCLC): 21.4 µM and > 25 µM | TGI (SF-295 CNS): 2.53 µM and 2.42 µM | TGI (KM12 colon): 9.2 µM and 7.56 µM | GI50 (DMS 114 small cell lung): 1.9 µM and 0.747 µM | TGI (DMS 114 small cell lung): 12.4 µM and 4.81 µM | GI50 (SN12C renal): 1.21 µM and 0.366 µM | TGI (SN12C renal): 2.93 µM and 1.34 µM | TGI (K-562 leukemia): 22.4 µM and > 25 µM | TGI (SK-MEL-2 melanoma): 14.9 µM and 11.3 µM | TGI (NCI-H460 lung): 0.887 µM and 2.88 µM | TGI (M19-MEL melanoma): 12.8 µM and 10.2 µM | TGI (MALME-3M melanoma): 9.79 µM and 9.69 µM | TGI (A549 NSCLC): 1.44 µM and 5.01 µM | TGI (SR leukemia): 3.21 µM and > 25 µM | TGI (U251 CNS): 6.51 µM and 8.32 µM | TGI (COLO 205 colon): 15.1 µM and 13.1 µM | TGI (SK-MEL-28 melanoma): 27.1 µM and 16.4 µM | TGI (SK-MEL-5 melanoma): 5.71 µM and 5.32 µM | GI50 (NCI-H522 lung): 1.41 µM and 3.08 µM | TGI (NCI-H522 lung): 7.72 µM and 7.21 µM | TGI (SNB-19 CNS): 7.1 µM and 6.95 µM | TGI (SK-OV-3 ovarian): 4.6 µM and 4.45 µM | TGI (NCI-H23 lung): 2.62 µM and 2.69 µM | TGI (HOP-62 NSCLC): 2.63 µM and 2.65 µM
